Data set [1] concerns the target cage 1 (Fe^II8L6 cubic cage with zinc porphyrin faces). Kind of data set: Ultraviolet-visible titration of cage 1 with guest (host-guest binding). How it is done:
Ultraviolet–visible absorption spectroscopy measurements were performed using a Perkin Elmer Lambda 750 UV-Vis-NIR spectrophotometer fitted with a PTP-1 Peltier temperature controller accessory. Spectra were obtained in double beam mode using only the (front) analyte beam to record spectra, with air in the (rear) reference path. Samples were analysed using quartz cuvettes with optical path lengths of 1 mm. Unless otherwise specified, 417 nm was the wavelength selected to follow the binding of the guest.
A solution of 1 in CH3CN:H2O (1:1) (250 μl, 1.5 μM) or pure acetonitrile was transferred to a cuvette. Small aliquots of the guest's solution were titrated into the cuvette. The experiment was performed at room temperature. Each experiment was repeated three times (Supplementary Figs 31–46 and Supplementary Methods). Data obtained from the ultraviolet–visible titration were then fitted using nonlinear analysis with DynaFit programme (Biokin Software)[30] to the binding equation derived for either 1:1 model (porphyrin:guest with one imidazole group) or 2:1 model (porphyrin:guest with two imidazole groups), except in the case of G7. G7 contains two histidine amino acids in consecutive positions, therefore the distance between the imidazole rings of these two amino acids is too short to allow the interaction with two porphyrins at the same time. In this case, the binding model was 2:1 peptide:cage.
The dilution effect was corrected by multiplying the observe intensity for the dilution factor before the fitting. The error reported for each affinity value is the formal standard error calculated by DynaFit[30] as the square root of the diagonal elements of the variance–covariance matrix. This s.e. gives an idea of the precision of the fitted value.
The experimental data obtained using UV-Vis spectroscopy for each guest was fitted using
nonlinear analysis with DynaFit program (Biokin Software)2 to the binding equation derived
for 1:1 model porphyrin:imidazole group (non-cooperative model). […]

For data set [2], the system named is cage 1 (Fe^II8L6 cubic cage with zinc porphyrin faces). Kind of data set: Host-guest chemistry studied by 1H NMR titration. The data set is classed as binding. To be noted: shifts of β-pyrrolic protons of 1. The text has this:
We used 1-methylimidazole (G1) as an initial probe, following its binding by ^1H NMR spectroscopy. Due to the large cavity, only slight upfield shifts of the signals of the β-pyrrolic protons of 1 were observed following the addition of G1. […] However, when a 1:1 mixture of water:acetonitrile was used, it was necessary to add 70 equivalents to achieve saturation (Supplementary Fig. 27). We infer the weaker interaction in the presence of water to be due to competing hydrogen bonding between water and imidazole.
A solution of 1 (0.5 ml) was prepared in a mixture of CD3CN:D2O (1:1) or in pure CD3CN and was transferred to a J-Young NMR tube. Aliquots of the guest were added in the same mixture of solvents. The NMR spectrum was recorded after each addition and the sample was mixed thoroughly before each measurement (Supplementary Figs 26–30).

The test system of a further data set is trypsin. As to the kind of experiment: Trypsinization experiments (peptide hydrolysis by trypsin, with or without 1). The data set is classed as in vitro ADME. How it is done:
(§1) Finally, we envisaged that the closed cubic architecture of 1 could protect its histidine-containing peptide guests from enzymatic degradation. For these experiments we used the protease trypsin, which cleaves exclusively on the C-terminal side of lysine and arginine residues. We initially examined G7 as a substrate. […] The incubation of a 20 μM solution of G8 with 0.3 equiv. of trypsin in a mixture of acetonitrile and phosphate buffer (pH=7.5) for 30 min led to the cleavage of G8 in 76% yield (Supplementary Fig. 49). When the same reaction was run in the presence of 0.6 equiv. of 1 (2:1 binding stoichiometry), the extent of cleavage was only 9% (Supplementary Fig. 50). The low degree of enzymatic degradation observed is consistent with the 9 μM dissociation constant of the adduct between 1 and G8, which implies the presence of a small amount of free peptide under the reaction conditions. Importantly, when the same experiment was carried out with a non-binding G9 in place of G8, with or without 1, quantitative G9 cleavage was observed (Supplementary Figs 52 and 53). In a further test, we treated a mixture of both peptides and 1 with trypsin, and incubated the mixture under identical conditions. In this case almost complete selectivity was observed.
(§2) Trypsinization reactions were followed by analytical RP-HPLC with an Agilent 1,100 series LC using an Eclipse XDB-C18 analytical column (3 × 150 mm, 3.5 μm). Standard conditions for analytical RP-HPLC consisted on a linear gradient from 0 to 10% of solvent B in 5 min, it then increased from 10 to 70% in 30 min at a flow rate of 1.0 ml min^−1 (A: water with 0.1% trifluoroacetic acid (TFA), B: acetonitrile with 0.1% TFA); 55 μl of solution was injected to the column each time. Compounds were detected by ultraviolet absorption and subsequently characterized by electrospray ionization (ESI) (Supplementary Figs 48–56).
(§3) The samples were prepared in 200 μl solution (40% CH3CN, 50% phosphate buffer and 10% H2O; phosphate buffer: 0.1 M, pH 7.5, 0.2 M NaCl). The concentration of the solution components were: peptides (G8 and G9) 20 μM, trypsin 6 μM and 1 12 μM. However, not all components were present in each sample, as noted in the main text. The reaction mixtures were stirred at room temperature for 30 min. It was observed that longer reaction times cause degradation of 1 due to the high concentration of NaCl in the phosphate buffer. After this time, H2O (200 μl) and acetic acid (8 μl) were added to quench the reaction. In the case of the control experiments with free Zn porphyrins, the concentration of the porphyrin was 72 μM.

Assay in data set [3]: as above
Conditions: isolated enzyme trypsin; peptide 20 μM, trypsin 6 μM (0.3 equiv.), 40% CH3CN / 50% phosphate buffer (0.1 M, pH 7.5, 0.2 M NaCl) / 10% H2O, room temperature, 30 min, RP-HPLC UV; read-out: cleavage by trypsin, single peptide, no 1. The format is in vitro ADME. How it is done:
as §1, §2, §3

The next data set is described as follows: Solubility observations. The format is physicochemical. On the procedure: In a J-Young NMR tube porphyrin A (4 mg, 3.3 μmol, 6 equiv.; Supplementary Figs 1–4 and Supplementary Methods), iron(II) triflate (1.5 mg, 4.4 μmol, 8 equiv.) and 5,6,7,8-tetrahydronaphthalen-2-amine B (1.9 mg, 13 μmol, 24 equiv.) were suspended in [D7]DMF (400 μl) and [D3]MeCN (100 μl). The solution was deoxygenated by three freeze-pump-thaw cycles, the tube was sealed, and heated in the oil bath for 8 h at 70 °C. After this time, the solution was opened to air and cooled to room temperature. […] The suspension was centrifuged and the solvent above the solid was removed. The purple solid was washed twice with chloroform (3 ml) and partially dried under nitrogen. The solid was dissolved in acetonitrile (0.5 ml) after drying with nitrogen. 1 (Supplementary Figs 5–12) was not soluble in pure water, but it is soluble in a 1:1 acetonitrile:water mixture (1 mg ml^−1).

Where [4] appears, read: 1:1 acetonitrile:water, 20 °C, 1 at 1.5 μM, UV-Vis at 417 nm, non-cooperative 1:1 imidazole (or thiazole):porphyrin model, except G7 (2:1 peptide:1), DynaFit fit, ± formal standard error, repeated three times, read-out: Kd (μM) in CD3CN:H2O (1:1).
Setting [5] is: 1:1 acetonitrile:water, 20 °C, 1 at 1.5 μM, UV-Vis at 417 nm, non-cooperative 1:1 imidazole (or thiazole):porphyrin model, except G7 (2:1 peptide:1), DynaFit fit, ± formal standard error, repeated three times.
The mark [6] stands for this setting: peptide 20 μM, trypsin 6 μM, 1 12 μM, 40% CH3CN / 50% phosphate buffer (0.1 M, pH 7.5, 0.2 M NaCl) / 10% H2O, room temperature, 30 min, RP-HPLC UV.

Entries after “also recorded” stand apart in the source; their conditions may differ. Like-named read-outs stand apart in the source and are kept apart here. Non-standard residues stand in square brackets, D forms with d. Residues, ends and D or L forms follow the SMILES beside them. No end group written: not given here. *: point of attachment. Dnp = O=[N+]([O-])c1ccc(*)c([N+](=O)[O-])c1; 2Abz = Nc1ccccc1C(=O)O

As for `Cn1ccnc1` [Guest G1, 1-methylimidazole], the Kd is 900 ± 70 µM in data set [1] (setting [4]) and 30 ± 1 µM in data set [1] (pure acetonitrile, 20 °C, 1 at 1.5 μM, UV-Vis at 417 nm, non-cooperative 1:1 imidazole:porphyrin model, DynaFit fit, ± formal standard error, repeated three times, read-out: Kd (μM) in CD3CN). Also, the “equivalents of guest at saturation (1H NMR)” value in data set [2] (in 1:1 water:acetonitrile) is listed as 70 equivalents; in data set [2] (in acetonitrile), “seven”.
As to `CC[C@H](C)[C@H](NC(=O)CNC(=O)c1ccccc1N)C(=O)N[C@H](C(=O)N[C@@H](CCCNC(=N)N)C(=O)N[C@@H](C)C(=O)N[C@@H](CCCCNc1ccc([N+](=O)[O-])cc1[N+](=O)[O-])C(=O)O)C(C)C` [Guest G9, Abz-NH-G-I-V-R-A-K(Dnp)-OH] (H-[2Abz]GIVRAK(Dnp)-OH), the “Kd (μM) in CD3CN:H2O (1:1)” value in data set [1] (setting [5]) is listed as “no binding interaction; also recorded: not observed to interact”. Besides, the “hydrolysis by trypsin in the presence of free Zn porphyrin” value in the data set with trypsin (free A or water-soluble Zn-tetrakis(4-sulfonatophenyl)porphyrin 72 μM, peptide 20 μM, trypsin 6 μM, pH 7.5, 30 min) is reported as “unaffected”. The “cleavage by trypsin, single peptide, no 1” value in the data set with trypsin (peptide 20 μM, trypsin 6 μM (0.3 equiv.), 40% CH3CN / 50% phosphate buffer (0.1 M, pH 7.5, 0.2 M NaCl) / 10% H2O, room temperature, 30 min, RP-HPLC UV) is reported as “quantitative”. Moreover, the “cleavage by trypsin, single peptide, in the presence of 0.6 equiv. of 1” value in the data set with trypsin (setting [6]) is on record as “quantitative”.
With `CC[C@H](C)[C@H](NC(=O)[C@@H](N)CCC(=O)O)C(=O)N[C@@H](CC(C)C)C(=O)N[C@@H](CC(=O)O)C(=O)N[C@H](C(=O)N1CCC[C@H]1C(=O)N[C@@H](CO)C(=O)N[C@H](C(=O)O)[C@@H](C)O)C(C)C` [Guest G10, H2N-E-I-L-D-V-P-S-T-OH], the “Kd (μM) in CD3CN:H2O (1:1)” value in data set [1] (setting [5]) is reported as “no binding interaction; also recorded: not observed to interact”.
As for `c1cscn1` [thiazole], in data set [1] (setting [4]), the Kd is 1000 ± 200 µM.
H-SSWGHVGKYVHGWSHVS-OH [Guest G8]: in data set [1] (setting [4]), the Kd was 9 ± 2 µM. The “times lower affinity than G7” value in data set [1] (in 1:1 acetonitrile:water) amounted to 100. Moreover, the metabolised at 0.5 h in data set [3] turned out to be 76%. For the same compound, the “yield of cleavage by trypsin, mixture of G8 and G9, 0.6 equiv of 1” value in the data set on trypsin (both peptides 20 μM, trypsin 6 μM, 1 12 μM, 40% CH3CN / phosphate buffer pH 7.5, room temperature, 30 min, RP-HPLC UV) was 11%. Also, the “cleavage by trypsin, single peptide, in the presence of 0.6 equiv. of 1” value with trypsin (setting [6]) was 9%.
Regarding “VFQFLGKIIHHVGNFVHGFSHVF [Guest G7, Clavanin A]”, in data set [1] (1:1 CH3CN:H2O, 20 °C, 1 at 1.5 µM (G7 3 µM)), the “equivalents of guest that saturate the cage (UV-Vis)” value is “two”. In addition, the Kd in data set [1] (1:1 CH3CN:H2O, 20 °C, 1 at 1.5 µM (Supplementary Figure 43), 2:1 peptide:1 model, read-out: Kd, titration at 1.5 µM cage) is 0.06 ± 0.05 µM; in data set [1] (setting [4]), 0.08 ± 0.02 µM. For the same compound, in “Solubility observations” (trypsinization conditions), the “solubility at neutral pH” value was “low solubility”.
For tetrakis(formylpyridine)porphyrin A, the “solubility in water or acetonitrile” value in “Solubility observations” (in either water or acetonitrile) is listed as “not observed to dissolve”.
